Laboratory results taken from US20260355199A1, “COMPOSITIONS AND METHODS FOR TREATING OR PREVENTING NONALCOHOLIC STEATOHEPATITIS (NASH), ANOREXIA, DEPRESSION, ENDOMETRIOSIS, AND OTHER DISEASES OR DISORDERS” (priority 2022, published 2026).
Entries after “also recorded” stand apart in the source; their conditions may differ.

Assays:
AGRP in the ARC = assay: AGRP expression and feeding of chow-fed mice given Bobcat339 in drinking water; assay type: in vivo, mouse
From the text: It has previously been shown that TET3 expression is aberrantly elevated in the livers of humans and mice with type 2 diabetes and that liver-specific, siRNA-mediated TET3 knockdown improves glucose homeostasis both in dietary and genetic mouse models of diabetes (Li D. et al., 2020, Nature Communications, 11:342). Bobcat339 (4-Amino-1-[1,1′-biphenyl]-3-yl-5-chloro-2(1H)-pyrimidinone) is a synthetic cytosine derivative capable of binding competitively with 5mC to the active sites of [COMPOUND LEFT OUT] and inhibits their enzymatic activity in cultured neuronal cells (Chua G. N. L. et al., 2019, ACS Medicinal Chemistry Letters, 10:180-185). Although not bound by any particular theory, it was hypothesized that Bobcat339 has an anti-diabetic effect owing to its ability to inhibit [COMPOUND LEFT OUT]. Thus, the present studies employed high fat diet (HFD)-induced diabetic mice that were treated with Bobcat339 in drinking water for two weeks. […] Thus, nondiabetic mice fed on regular chow were treated with Bobcat339 in drinking water. Four days later, ARCs were isolated from ad libitum-fed mice and analyzed. […]
Immunofluorescence Postfixed sections were cut into 40 μm-thick sections. […] The sections were coverslipped and visualized using a Keyence BZ-X700 fluorescence microscope. The fluorescence signals from GFP and mCherry in AgRP neurons were detected without immunostaining. […]

Plasma corticosterone = assay type: in vivo, mouse; conditions: ABA mice
Method: (§1) For corticosterone, blood samples were obtained via retroorbital bleeding between 19:00 and 20:00. For alanine transaminase, aspartate transaminase and bilirubin, blood samples were collected by cardiac puncture of terminally anesthetized animals. All blood samples were collected in EDTA tubes (Microtainer with K2EDTA, BD, 365974). The tubes were centrifuged at 2,000×g at 4 °C for 20 min, and plasma was collected and stored at −80 °C until use. Plasma corticosterone levels were measured using Corticosterone ELISA kit (Enzo, ADI-900-097) according to the manufacturer's instructions. Kits used to measure alanine transaminase (EALT-100) and aspartate transaminase (EASTR-100) were purchased from Bioassay Systems. The bilirubin assay kit (MAK126) was purchased from Sigma Aldrich.

[1] = Liver toxicity after three weeks of once-a-week Bobcat339; assay type: in vivo, mouse
Method: as §1

RAW 264.7 cells = assay: TUNEL assay in RAW 264.7 cells; assay type: cell-based, mouse; conditions: RAW 264.7, 10 μM, 48 h
Method: For TET3 expression restoration experiments, cells seeded in 24-well plates were infected with Ad-GFP or Ad-TET3 at 4000 gc/cell. Following 16 h of infection, vehicle or Bobcat339 were added at a final concentration of 10 μM. Protein and RNA were isolated 48 hours later and analyzed.
These were performed using the In Situ Cell Death Detection Kit (Sigma Aldrich, 12156792910). Briefly, cells were fixed with 4% paraformaldehyde in PBS for 1 h at RT and rinsed with PBS, followed by permeabilization with 0.1% Triton X-100 in 0.1% sodium citrate for 2 min on ice. TUNEL reaction mixture was added and incubation was carried out at 37 °C for 60 min. DAPI was added to counter-stain the cells for 1 min. The slides were coverslipped and scoped using a Keyence BZ-X700 fluorescence microscope.

[2] = Energy expenditure and feeding of mice given Bobcat339; assay type: in vivo, mouse
TET1 = conditions: cited from earlier work
[3] = dosage and administration regimes used; cited from earlier work

Nc1nc(=O)n(-c2cccc(-c3ccccc3)c2)cc1Cl [Bobcat339, 4-Amino-1-[1,1′-biphenyl]-3-yl-5-chloro-2(1H)-pyrimidinone]
AGRP expression in the ARC (AGRP in the ARC; Bobcat339 100 mg/kg per day in drinking water, 4 days, 100 mg/kg/day): increased AGRP expression in the ARC; also recorded: increased AGRP peptide; also recorded: increased AGRP production | feeding (AGRP in the ARC; mice exposed to Bobcat339): induced hyperphagia | plasma cortisol levels (Plasma corticosterone): reduced plasma cortisol levels | tolerability ([1]; 3-weeks of once-a-week i.p. injection): well tolerated | liver toxicity ([1]; three weeks of once-a-week i.p. Bobcat339): no evidence of liver toxicity; also recorded: no liver toxicity has been detected | apoptosis (TUNEL) (RAW 264.7 cells): induced apoptosis; also recorded: a significant increase in apoptotic cell death | apoptosis (TUNEL) (RAW 264.7 cells; with Ad-TET3): reversed by overexpression of TET3; also recorded: not seen when TET3 was overexpressed | feeding ([2]; drinking water or i.p.): induced hyperphagia | liver toxicity ([2]; drinking water or i.p.): without showing evidence of liver toxicity | resting energy expenditure ([2]; drinking water or i.p.): decreases resting energy expenditure | appetite stimulation by route ([2]; oral and intraperitoneal): able to stimulate appetite via multiple routes of administration | inhibitory activity against TET1 (TET1; in the absence of contaminating copper (II)): negligible inhibitory activity | inhibition of enzymatic activity of TET1 (TET1; initially reported): inhibit the enzymatic activity | adverse pathology [3]: minimal adverse pathology
